{
  "source": "patent US12264356B2",
  "about": "“Method for determining sensitivity to SGLT2 inhibitor and sensitivity marker for SGLT2 inhibitor” (NIHON UNIVERSITY, priority 2019, dated 2025)",
  "test_system": "patients suffering from coronary artery disease complicated with type 2 diabetes",
  "assay": "Administration of SGLT2 inhibitor (50 mg Ipragliflozin) for 3 months; changes in individual indicators before and after administration",
  "type": "in vivo, human",
  "conditions": "for 1,5-AG after administration of SGLT2 inhibitor: P <0.001",
  "protocol": "Thirty patients suffering from coronary artery disease complicated with type 2 diabetes (28 male patients and 2 female patients; average age: 70.5±8.1 years old) who did outpatient visit and could not sufficiently control their blood glucose level only by administration with an oral hypoglycemic agent were used as subjects. Patients whose casual urinary sugar was positive before administration of the agent were excluded from the subjects. The aforementioned patients were administered with the SGLT2 inhibitor (50 mg Ipragliflozin; 30 cases) alone or in combination with other oral hypoglycemic agents for 3 months. In the additional administration groups, the antidiabetic agents used in combination with the SGLT2 inhibitor were 10 cases of sulfonylurea drugs, 19 cases of DPP-4 inhibitors, 9 cases of thiazolidine drugs, and 4 cases of metformin. The average number of the combined agents was 2.4. During the observation period, the combined antidiabetic agents were not changed.\nBefore administration of the SGLT2 inhibitor and 3 months after the first administration, 1,5-AG, HbA1c, casual urinary sugar (U-Sugar), LDL cholesterol (LDL-C), hematocrit (Ht), NT-proBNP, and eGFR (estimated glomerular filtration rate) were measured, and changes in individual indicators before and after the administration were examined. Moreover, regarding cases in which the 1,5-AG value before administration of the SGLT2 inhibitor was less than 13 μg/mL (19 male patient cases), changes in individual indicators before and after the administration were examined.\n1,5-AG was measured by an enzymatic method (the aforementioned Lana 1,5AG Auto Liquid, manufactured by Nippon Kayaku Co., Ltd.); HbA1c was measured by an HPLC method (manufactured by Tosoh Co., Ltd.); casual urinary sugar was measured by a test paper method (manufactured by Eiken Chemical Co., Ltd.); and LDL cholesterol was measured by an enzymatic method (manufactured by SEKISUI MEDICAL CO., LTD.) and NT-pro BNP was measured by an ELC-EIA method (manufactured by Roche Diagnostics K. K.).\nIn Table 5 and Table 6, the results are shown with mean±SD, and for statistical analyses, a paired t-test was applied, and p<0.05 was defined to be statistically significant.",
  "data": [
    {"smiles": "OC[C@H]1O[C@@H](c2ccc(F)c(Cc3cc4ccccc4s3)c2)[C@H](O)[C@@H](O)[C@@H]1O", "note": "[Ipragliflozin]", "values": [
      {"measurement": "1,5-AG after administration of SGLT2 inhibitor", "setting": "19 male patients with 1,5-AG less than 13 μg/mL before administration, 50 mg, 3 months, mean ± SD, before 8.6 ± 2.9", "value": "1.7 ± 0.8", "unit": "µg/mL"},
      {"measurement": "HbA1c after administration of SGLT2 inhibitor", "setting": "19 male patients with 1,5-AG less than 13 μg/mL before administration, 3 months, before 7.2 ± 0.8, P = 0.13", "value": "6.8 ± 0.6"},
      {"measurement": "1,5-AG after administration of SGLT2 inhibitor", "setting": "30 patients, 50 mg, 3 months after first administration, mean ± SD, before administration 12.8 ± 6.7", "value": "2.5 ± 2.0"},
      {"measurement": "HbA1c after administration of SGLT2 inhibitor", "setting": "30 patients, 50 mg, 3 months, mean ± SD, before 7.0 ± 0.8, P = 0.40", "value": "7.2 ± 1.2"}
    ]}
  ]
}
